{"source": "patent US20170137855A1", "about": "“RECOMBINANT CELLS AND METHODS FOR NONPHOSPHORYLATIVE METABOLISM” (REGENTS OF THE UNIVERSITY OF MINNESOTA, priority 2015, published 2017)", "key": {"[1]": {"biological_target": "T1, Burkholderia xenovorans LB400 2-keto-3-deoxy-D-xylonate dehydratase (DR64_8450) (Paraburkholderia xenovorans, UniProt Q13FD1)", "T1 construct": "coupled with D-xylonate dehydratase and KGSADH", "T1 sequence (Q13FD1 1-395)": "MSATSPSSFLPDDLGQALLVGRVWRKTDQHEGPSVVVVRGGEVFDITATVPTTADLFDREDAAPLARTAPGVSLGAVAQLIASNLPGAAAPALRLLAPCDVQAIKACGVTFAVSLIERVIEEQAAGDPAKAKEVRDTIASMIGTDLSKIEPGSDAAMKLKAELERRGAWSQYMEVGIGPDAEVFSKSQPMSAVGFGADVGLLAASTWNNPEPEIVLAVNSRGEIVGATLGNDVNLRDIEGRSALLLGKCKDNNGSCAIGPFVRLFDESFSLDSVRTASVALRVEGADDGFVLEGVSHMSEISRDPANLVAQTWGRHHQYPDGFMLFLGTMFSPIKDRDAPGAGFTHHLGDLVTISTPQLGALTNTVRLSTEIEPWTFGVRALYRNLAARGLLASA", "assay": "B. xenovorans 2-keto-3-deoxy-D-xylonate dehydratase, coupled assay with KGSADH", "type": "biochemical", "method": "(§1) 2-Keto-3-deoxy-D-xylonate dehydratase (XylX/DR64-8450), 2-keto-3-deoxy-L-arabonate dehydratase (AraD) and 5-keto-4-deoxy-D-glucarate dehydratase (YcbC): Enzyme activities of XylX, DR64-8450, AraD and YcbC were assayed spectrophotometrically in a coupled assay with the corresponding previous dehydratase and 2-ketoglutaric semialdehyde dehydrogenase (KGSADH) as previously described (Watanabe et al., 2006. J Biol. Chem. 281:33521-33536). […] The reaction was initiated by adding an appropriate amount of 2-keto-3-deoxy-D-xylonate dehydratase (XylX/DR64-8450)/2-keto-3-deoxy-L-arabonate dehydratase (AraD)/5-keto-4-deoxy-D-glucarate dehydratase (YcbC), and the increasing absorbance at 340 nm caused by NADH produced in the reaction was monitored."}, "[2]": {"biological_target": "T2, Caulobacter crescentus 2-keto-3-deoxy-D-xylonate dehydratase (XylX) (Caulobacter vibrioides, UniProt A0A0H3C4T2)", "T2 construct": "coupled with XylD and KGSADH; BlpI site removed in gene", "T2 sequence (A0A0H3C4T2 1-384)": "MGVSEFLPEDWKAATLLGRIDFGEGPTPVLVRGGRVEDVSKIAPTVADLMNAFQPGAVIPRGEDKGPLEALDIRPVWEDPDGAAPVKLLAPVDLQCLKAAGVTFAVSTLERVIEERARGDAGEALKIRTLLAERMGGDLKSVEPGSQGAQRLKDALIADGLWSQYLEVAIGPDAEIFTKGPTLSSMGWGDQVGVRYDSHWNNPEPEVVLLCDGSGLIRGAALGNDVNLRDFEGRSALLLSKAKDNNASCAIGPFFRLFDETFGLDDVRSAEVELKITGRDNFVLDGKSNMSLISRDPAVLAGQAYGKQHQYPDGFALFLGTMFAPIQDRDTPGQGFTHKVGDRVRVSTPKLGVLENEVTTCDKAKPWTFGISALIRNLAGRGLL", "assay": "C. crescentus 2-keto-3-deoxy-D-xylonate dehydratase, coupled assay with KGSADH", "type": "biochemical", "details": "substrate from 0-20 mM D-xylonate, 1 mM NAD+, pH 7.5, 25° C.", "method": "as §1"}, "[3]": {"biological_target": "T3, Lactococcus lactis 2-ketoacid decarboxylase Kivd, wild type (Lactococcus lactis, UniProt Q684J7)", "T3 construct": "also expressed from pBDO-5 in E. coli fermentation (A5)", "T3 sequence (Q684J7 1-548)": "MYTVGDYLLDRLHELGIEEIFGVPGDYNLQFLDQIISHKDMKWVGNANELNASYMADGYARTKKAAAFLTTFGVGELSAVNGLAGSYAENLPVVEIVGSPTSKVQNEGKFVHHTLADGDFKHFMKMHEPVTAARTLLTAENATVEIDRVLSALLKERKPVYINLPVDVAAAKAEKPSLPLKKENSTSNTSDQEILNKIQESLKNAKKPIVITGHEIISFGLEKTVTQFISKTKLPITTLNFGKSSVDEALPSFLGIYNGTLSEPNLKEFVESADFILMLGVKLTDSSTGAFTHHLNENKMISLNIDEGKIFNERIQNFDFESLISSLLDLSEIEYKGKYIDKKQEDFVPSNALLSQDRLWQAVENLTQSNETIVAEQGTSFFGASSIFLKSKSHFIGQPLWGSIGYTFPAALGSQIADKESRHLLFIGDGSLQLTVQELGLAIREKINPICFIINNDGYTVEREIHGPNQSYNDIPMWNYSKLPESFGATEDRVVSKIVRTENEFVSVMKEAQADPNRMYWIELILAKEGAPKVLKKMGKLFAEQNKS", "assay": "Kivd activity inferred from absence of BTO accumulation with L-arabinose as substrate", "type": "cell-based", "details": "indicated by no accumulation of BTO using L-arabinose", "method": "125 ml conical flasks with 0.2 g CaCO3 were autoclaved and dried to perform all small-scale fermentations. […] 200 μl of overnight cultures incubated in 2×YT medium were transferred into the flasks and placed in a shaker at a speed of 250 rpm. After adding 0.1 mM isopropyl-β-D-thiogalactoside (IPTG), the flasks were sealed by parafilm and the fermentation was performed for 48 hours at 30° C. The fermentation products were measured by HPLC."}, "[4]": {"biological_target": "T4, Bacillus subtilis 5-keto-4-deoxy-D-glucarate dehydratase (YcbC) (Bacillus subtilis, UniProt P42235)", "T4 construct": "His; made in house; host or cells: E. coli BL21", "T4 sequence (P42235 whole entry)": "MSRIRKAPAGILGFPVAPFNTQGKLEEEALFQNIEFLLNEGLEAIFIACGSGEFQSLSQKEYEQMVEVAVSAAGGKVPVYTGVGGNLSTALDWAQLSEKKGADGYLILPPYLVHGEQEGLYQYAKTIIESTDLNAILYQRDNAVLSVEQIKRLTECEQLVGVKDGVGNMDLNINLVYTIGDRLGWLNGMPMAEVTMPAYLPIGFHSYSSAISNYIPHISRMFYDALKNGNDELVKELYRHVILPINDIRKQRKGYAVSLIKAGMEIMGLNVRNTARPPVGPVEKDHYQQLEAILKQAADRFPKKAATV", "assay": "5-keto-4-deoxy-D-glucarate dehydratase, coupled assay with KGSADH", "type": "biochemical", "details": "substrate from 0-20 mM D-galactarate, pH 7.5, 25° C.", "method": "as §1"}, "[5]": {"biological_target": "T5, Caulobacter crescentus D-xylose dehydrogenase (XylB) (Caulobacter vibrioides, UniProt B8H1Z0)", "T5 construct": "His; made in house; host or cells: E. coli BL21", "T5 sequence (B8H1Z0 1-248)": "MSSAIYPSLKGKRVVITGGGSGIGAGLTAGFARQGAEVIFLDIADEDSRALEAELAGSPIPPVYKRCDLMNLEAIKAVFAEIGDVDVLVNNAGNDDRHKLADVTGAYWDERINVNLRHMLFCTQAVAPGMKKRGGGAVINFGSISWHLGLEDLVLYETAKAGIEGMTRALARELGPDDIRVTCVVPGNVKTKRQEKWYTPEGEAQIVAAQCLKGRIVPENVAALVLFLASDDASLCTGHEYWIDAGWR", "assay": "C. crescentus D-xylose dehydrogenase, NADH generation at 340 nm", "type": "biochemical", "details": "D-xylose 0 to 10 mM, 1 mM NAD+", "method": "(§2) A series of enzymatic assays were conducted to estimate the initial activity as a function of starting substrate concentration. […] Kinetic constants (kcat/Km) for following enzymes were calculated with the same method."}, "[6]": {"biological_target": "T6, Burkholderia xenovorans LB400 D-xylose dehydrogenase (DR64_8447) (Paraburkholderia xenovorans, UniProt Q13FC8)", "T6 construct": "gene from LB400 genomic DNA", "T6 sequence (Q13FC8 1-268)": "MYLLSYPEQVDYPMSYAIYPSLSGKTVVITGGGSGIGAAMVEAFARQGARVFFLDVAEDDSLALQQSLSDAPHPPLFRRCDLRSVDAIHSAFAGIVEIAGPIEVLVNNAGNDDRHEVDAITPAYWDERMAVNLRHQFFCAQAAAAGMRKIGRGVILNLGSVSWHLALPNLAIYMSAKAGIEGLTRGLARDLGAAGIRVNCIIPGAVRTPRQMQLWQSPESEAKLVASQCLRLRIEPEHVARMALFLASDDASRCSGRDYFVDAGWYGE", "assay": "B. xenovorans D-xylose dehydrogenase, NADH generation at 340 nm", "type": "biochemical", "details": "D-xylose 0 to 10 mM, 1 mM NAD+", "method": "as §2"}, "[7]": {"details": "100 mM Tris-HCl, 5 mM MgCl2, pH 7.5, 30° C."}}, "note": "Values joined by “and” are separate entries in the source; they are usually repeats but may differ in a detail not shown here. Equal entries are not always repeated."}
{"smiles": "O=C(O)C(=O)C[C@H](O)CO", "note": "[2-keto-3-deoxy-D-xylonate]", "values": [{"measurement": "kcat", "setting": "[1]; coupled assay, substrate from 0-20 mM D-xylonate, 1 mM NAD+, pH 7.5, 25° C.", "result": 4.7, "unit": "s⁻¹"}, {"measurement": "kcat compared to XylX of C. crescentus", "setting": "[1]; higher kcat (4.7 s^−1) vs 0.53 s^−1", "result": 9, "unit": "fold"}, {"measurement": "kcat", "setting": "[2]", "result": 0.53, "unit": "s⁻¹"}, {"measurement": "kcat/Km", "setting": "[2]", "result": 260, "unit": "M⁻¹ s⁻¹"}]}
{"smiles": "O=C(O)C(=O)C[C@@H](O)CO", "note": "[2-keto-3-deoxy-L-arabonate]", "values": [{"measurement": "Kivd activity on 2-keto-3-deoxy-L-arabonate", "setting": "[3]", "result": "not active"}]}
{"smiles": "O=C(O)C(=O)C[C@H](O)[C@@H](O)C(=O)O", "note": "[5-keto-4-deoxy-D-glucarate]", "values": [{"measurement": "specific constant (kcat/Km), compared within D-galacturonate pathway", "setting": "[4]", "result": "lowest specific constant"}]}
{"smiles": "OC1OC[C@@H](O)[C@H](O)[C@H]1O", "note": "(stereo partly drawn) [D-xylose]", "values": [{"measurement": "Km", "setting": "[5]; [7]", "result": "850 ± 80", "unit": "µM"}, {"measurement": "kcat", "setting": "[5]; pH 7.5, 30° C.", "result": "12.1 s⁻¹ and 12.1 ± 2.2 s⁻¹"}, {"measurement": "Km", "setting": "[6]; [7]", "result": "1970 ± 120", "unit": "µM"}, {"measurement": "kcat", "setting": "[6]; pH 7.5, 30° C.", "result": "49.9 ± 4.2", "unit": "s⁻¹"}]}
